Key:
[1] = Eyelid ptosis assessment (rats); assay type: in vivo, rat
Description: Ptosis was assessed as previously described (Rubin et al., 1957). Each animal was photographed while gently restrained by hand. Photographs were analyzed by a treatment blind observer (P.A.F.) and assigned a score of 0 (no ptosis, eye completely open), 1 (mild, eye partially closed), 2 (moderate, eye half closed), 3 (severe, eye […] closed), or 4 (complete, eye completely closed).

Forced swim test (rats) = assay type: in vivo, rat; settings: three doses, 5 min test, vehicle 81 s
Description: Forced Swim Test (FST; Rats) The FST in rats was conducted as previously described (Porsolt et al., 2001). On day 1, rats were placed in a cylindrical chamber (20 cm in diameter, 46 cm deep) filled to a height of 38 cm with room temperature water for 15 min. After the completion of this pre-exposure test, animals were removed from the apparatus, dried with towels and placed under a heat lamp for ˜30 min. […] Animals were treated with these same doses again 20 h and 23 h after the initial dose. Twenty-four h after the pre-exposure, animals were re-introduced to the apparatus and video-recorded for 5 min. Immobility was hand-scored for each video record by a treatment blind observer (P.A.F.) using ANYmaze (Stoelting) to record the data.

rat α3β4 nAChR channels = rat α3β4 nAChR channels (Rattus norvegicus, UniProt P04757+P12392); settings: 2001, cited from earlier work
Forced swim test (mice) = assay type: in vivo, mouse; settings: 6 min test
Description: Forced Swim Test (FST; Mice) The FST in mice was conducted as previously described [11]. Briefly, 10 min following i.p. injection of saline, EDDP or EMDP, mice were placed in Plexiglas cylinders filled with water (25° C.) for 6 min while being videotaped. The forced swim score for the entire 6 min test was assessed using the Cleversystems videotracking system (CleverSys) and confirmed with visual scoring by a trained observer. A mouse was judged to be immobile when making only those movements necessary to keep its head above water.

[2] = Elevated plus maze (rats); assay type: in vivo, rat
Description: Elevated Plus Maze (Rats) Plus maze testing was performed and scored as previously described (Forcelli and Heinrichs, 2008; Forcelli et al., 2012), in a standard grey rat elevated plus maze (50 cm arms, elevated 40 cm off the ground [Stoelting Co., Wood Dale, Ill.]). Testing was conducted under 20 lux red light, 30 min after drug administration. The number of arm entries and time spent in open and closed arms were recorded using ANYmaze (Stoelting Co, Wood Dale, Ill.).

[3] = Home cage locomotor activity (mice); assay type: in vivo, mouse; settings: mice, 0.5, 1, 5, 10 mg/kg i.p., 60 min
Description: Locomotor Activity (Mice) Locomotor activity in response to i.p. drug administration was analyzed in a “home cage” activity monitoring system (Med Associates, St. Albans, Vt.), as previously described (Walters and Blendy, 2001; Mackler et al., 2008; Isiegas et al., 2009). Briefly, a novel cage identical to the home cage (28.9 cm×17.8 cm 12 cm) was placed in a photo-beam frame (30 cm×24 cm×8 cm) with sensors arranged in an 8-beam array strip. For dose studies, mice were injected i.p. with saline or drug. Immediately following drug administration, the mice were placed individually in the cages. Beam break data was monitored and recorded for 60 min.

Marble burying (mice) = assay type: in vivo, mouse; settings: 15 min test, vehicle mean 11 of 20
Description: Marble Burying (Mice) After a 1 h period of acclimation to the testing room, the mice (n=6-10 per group) were injected i.p. with saline, EDDP, EMDP, or CDP at the doses indicated. Ten minutes later, the mice were placed individually in small cages (26×20×14 cm), in which twenty marbles had been equally distributed on top of mouse bedding (5-cm deep), and a wire lid was placed on top of the cage. Mice were left undisturbed for 15 min, after which time the number of buried marbles (i.e., those covered by bedding three-quarters or more) was counted.

opiate receptors = experiment: [3H]-naloxone binding competition in rat forebrain membranes
human α3β4 nAChRs = target: T1, human α3β4 nAChRs (Homo sapiens, UniProt P30926+P32297); experiment: 86Rb+ efflux assay, inhibition of nicotine-stimulated efflux, α3β4 nAChRs; assay type: cell-based
T1 construct: expressed in transfected cells
Description: Stable cell lines and ^86Rb^+ efflux Assay. […] These cell lines were maintained in minimum essential medium (MEM) supplemented with 10% fetal bovine serum, 100 units/mL penicillin G, […] and selective antibiotics at 37° C. with 5% CO2 in a humidified incubator. Tissue culture medium and antibiotics were obtained from Invitrogen Corporation (Carlsbad, Calif.), unless otherwise stated. Fetal bovine serum was obtained from Gemini Bio-Products (Woodland, Calif.).
In brief, cells were plated into 24-well plates coated with poly-D-lysine. […] The cells were then incubated in growth medium (0.5 mL/well) containing ^86Rb^+ (2 μCi/mL) for 4 hour at 37° C. The loading mixture was then aspirated, and the cells were washed four times with 1 mL buffer (15 mM HEPES, 140 mM NaCl, 2 mM KCl, 1 mM MgSO4, 1.8 mM CaCl2), 11 mM Glucose, pH 7.4). One mL of buffer with or without compounds to be tested was then added to each well. After incubation for 2 min, the assay buffer was collected for measurements of ^86Rb^+ released from the cells. Cells were then lysed by adding 1 mL of 100 mM NaOH to each well, and the lysate was collected for determination of the amount of ^86Rb^+ that was in the cells at the end of the efflux assay. Radioactivity of assay samples and lysates was measured by liquid scintillation counting. Total loading (cpm) was calculated as the sum of the assay sample and the lysate of each well, and the amount of ^86Rb^+ efflux was expressed as a percentage of ^86Rb^+ loaded. Stimulated ^86Rb^+ efflux was defined as the difference between efflux in the presence and absence of nicotine. […] IC50 values were determined by nonlinear least-squares regression analyses (GraphPad. San Diego, Calif.).

[4] = Open field locomotor activity (rats); assay type: in vivo, rat; settings: 5 mg/kg s.c., 30 min after injection
Description: Locomotor Activity (Rats) Locomotor activity was measured 30 minutes after sc injection of test compound. Animals were placed in a Plexiglass enclosure (16″×16″×16″, TruScan Arena, Coulbourn Instruments, Whitehall, Pa.) with 770 lux illumination over the center of the arena. Animals were allowed to explore for 20 min, during which total distance traveled was recorded using ANYmaze software (Stoelting Co., Wood Dale, Ill.), as previously described (Forcelli et al., 2012).

rat α3β4 nAChR channels, sequence (P04757 26-499): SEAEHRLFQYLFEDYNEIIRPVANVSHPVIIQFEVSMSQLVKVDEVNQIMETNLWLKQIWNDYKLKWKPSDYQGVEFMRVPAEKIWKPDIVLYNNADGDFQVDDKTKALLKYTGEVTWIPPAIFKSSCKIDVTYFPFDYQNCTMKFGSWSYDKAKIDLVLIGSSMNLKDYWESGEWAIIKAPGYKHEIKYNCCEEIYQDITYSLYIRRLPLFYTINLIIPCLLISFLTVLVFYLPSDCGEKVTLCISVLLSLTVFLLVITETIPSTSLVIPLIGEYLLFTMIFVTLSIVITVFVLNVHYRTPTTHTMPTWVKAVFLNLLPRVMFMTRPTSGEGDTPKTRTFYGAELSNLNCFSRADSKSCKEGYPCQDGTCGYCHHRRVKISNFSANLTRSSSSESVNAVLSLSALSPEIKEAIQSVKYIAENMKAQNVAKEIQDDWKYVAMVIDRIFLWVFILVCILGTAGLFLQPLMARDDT
rat α3β4 nAChR channels, sequence (P12392 21-495): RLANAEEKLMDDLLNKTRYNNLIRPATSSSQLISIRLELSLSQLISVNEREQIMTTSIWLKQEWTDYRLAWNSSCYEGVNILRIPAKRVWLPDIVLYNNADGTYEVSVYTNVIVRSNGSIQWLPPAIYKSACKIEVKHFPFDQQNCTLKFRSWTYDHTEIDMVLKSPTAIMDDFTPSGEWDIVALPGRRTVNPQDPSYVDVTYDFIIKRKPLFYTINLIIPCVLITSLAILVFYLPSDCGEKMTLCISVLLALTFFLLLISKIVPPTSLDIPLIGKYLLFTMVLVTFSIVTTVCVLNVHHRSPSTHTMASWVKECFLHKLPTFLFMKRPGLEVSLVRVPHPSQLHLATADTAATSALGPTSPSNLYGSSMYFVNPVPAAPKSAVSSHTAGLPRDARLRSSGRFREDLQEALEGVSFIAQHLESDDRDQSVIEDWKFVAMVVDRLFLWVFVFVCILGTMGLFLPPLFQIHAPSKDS
T1 sequence (P32297 32-505): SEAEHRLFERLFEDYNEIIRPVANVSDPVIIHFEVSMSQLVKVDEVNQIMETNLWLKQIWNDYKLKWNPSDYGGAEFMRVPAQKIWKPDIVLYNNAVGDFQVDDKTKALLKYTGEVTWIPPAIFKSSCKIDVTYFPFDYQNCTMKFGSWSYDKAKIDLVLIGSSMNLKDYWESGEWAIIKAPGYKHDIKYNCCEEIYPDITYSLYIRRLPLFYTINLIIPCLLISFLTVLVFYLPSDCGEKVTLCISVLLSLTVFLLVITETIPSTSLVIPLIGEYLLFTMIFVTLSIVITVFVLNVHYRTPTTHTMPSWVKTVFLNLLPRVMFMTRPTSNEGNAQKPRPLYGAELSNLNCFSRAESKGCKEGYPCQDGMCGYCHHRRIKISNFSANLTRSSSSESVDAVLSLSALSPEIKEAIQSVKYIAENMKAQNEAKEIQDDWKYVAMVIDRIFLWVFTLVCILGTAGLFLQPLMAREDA
T1 sequence (P30926 22-498): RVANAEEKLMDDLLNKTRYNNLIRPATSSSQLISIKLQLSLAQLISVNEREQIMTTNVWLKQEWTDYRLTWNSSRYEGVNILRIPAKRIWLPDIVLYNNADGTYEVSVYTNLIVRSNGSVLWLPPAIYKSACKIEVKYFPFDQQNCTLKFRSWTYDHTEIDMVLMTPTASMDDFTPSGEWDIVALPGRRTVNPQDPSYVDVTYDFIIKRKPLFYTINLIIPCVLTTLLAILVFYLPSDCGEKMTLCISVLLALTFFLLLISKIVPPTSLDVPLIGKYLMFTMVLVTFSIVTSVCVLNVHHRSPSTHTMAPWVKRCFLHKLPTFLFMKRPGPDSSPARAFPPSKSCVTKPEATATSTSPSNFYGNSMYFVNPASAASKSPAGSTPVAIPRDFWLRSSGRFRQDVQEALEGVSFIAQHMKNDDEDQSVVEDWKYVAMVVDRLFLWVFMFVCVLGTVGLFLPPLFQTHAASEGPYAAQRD

For CCC1=NC(C)CC1(c1ccccc1)c1ccccc1 (racemic) [EMDP, 2-ethyl-5-methyl-3,3-diphenyl-1-pyrroline], which “eyelid ptosis quantified over 3 h” value ([1]; 20 mg/kg) is on record?
The value was “ptosis was not apparent at any time”.

What about the “ptosis observed during forced swim tests” value ([1]; 10 and 20 mg/kg) of the same compound?
The value was “did not produce ptosis”.

And the “immobile time in forced swim test vs vehicle” value (Forced swim test (rats); 10 mg/kg s.c.)?
The value was “reduced immobile time”.

What about the “immobile time in forced swim test vs vehicle” value (Forced swim test (rats); 20 mg/kg s.c.) of the same compound?
The value was “reduced immobile time”.

And the “potency relative to mecamylamine in blocking rat α3β4 nAChRs” value (rat α3β4 nAChR channels; Xiao et al)?
The value was “one-sixth as potent”.

What about the “block of rat α3β4 nAChR channels” value (rat α3β4 nAChR channels; Xiao et al.) of the same compound?
Its value is “potently block”.

And the “duration of immobility in forced swim test vs vehicle” value (Forced swim test (mice); 5 mg/kg i.p.)?
The value was “did not affect immobility time”.

What about the “duration of immobility in forced swim test vs vehicle” value (Forced swim test (mice); 10 mg/kg i.p.) of the same compound?
The value was “significantly reduced”.

What about the “mean duration in the open arms of the elevated plus maze” value ([2]; s.c., dose not given, 30 min after drug, vehicle 104 s) of the same compound?
Its value is 143 s.

What about the “percentage of entries made into the open arms of the plus maze” value ([2]; vs vehicle) of the same compound?
The value was “the groups did not differ”.

And the “latency to first entry in the open arms” value ([2]; vs vehicle (data not shown))?
The value was “did not differ as a function of treatment group”.

What about the “overall home cage locomotor activity” value [3] of the same compound?
Its value is “did not significantly affect”.

And the “number of marbles buried vs vehicle” value (Marble burying (mice); 5 mg/kg i.p.)?
Its value is “buried significantly fewer marbles”.

And the “number of marbles buried vs vehicle” value (Marble burying (mice); 10 mg/kg i.p.)?
The value was “buried significantly fewer marbles”.

And the “fraction of [3H]-naloxone binding sites competed for” value (opiate receptors; at a concentration of 100 μM)?
The value was 60%.

And the “apparent affinity, fold lower than that of methadone” value (opiate receptors; rat forebrain [3H]-naloxone binding)?
Its value is about 1900 fold.

And the Ki (opiate receptors; rat forebrain membranes, 2 nM [3H]-naloxone, single-site model)?
The Ki was 21 µM.

What about the “potency relative to mecamylamine in blocking human α3β4 nAChRs” value (human α3β4 nAChRs) of the same compound?
Its value is “half as potent as mecamylamine”.

And the “open field locomotor activity” value [4]?
The value was “neither EDDP nor EMDP significantly altered”.
